Legend:
CCR1 receptor = target: T1, CCR1 receptor (Homo sapiens, UniProt P32246); assay: In vitro Ca2+-flux assay on human monocytes (THP-1), MIP-1α stimulated; format: cell-based; details: block of MIP-1α induced Ca2+-flux in THP-1 cells; 2,5-dimethylpiperazine derivatives tested as racemic mixtures
T1 construct: host or cells: THP-1
T1 sequence (P32246 1-355): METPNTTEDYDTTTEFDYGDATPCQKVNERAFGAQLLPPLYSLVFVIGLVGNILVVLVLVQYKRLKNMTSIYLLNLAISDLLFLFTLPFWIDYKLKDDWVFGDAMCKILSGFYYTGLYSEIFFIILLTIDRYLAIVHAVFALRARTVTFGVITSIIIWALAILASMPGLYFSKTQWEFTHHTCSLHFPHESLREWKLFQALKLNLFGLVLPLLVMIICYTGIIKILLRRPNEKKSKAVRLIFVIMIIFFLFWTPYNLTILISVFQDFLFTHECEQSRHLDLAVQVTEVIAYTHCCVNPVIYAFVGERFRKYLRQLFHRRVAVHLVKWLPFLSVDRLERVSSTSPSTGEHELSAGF
Protocol: The binding of Mip-1α at the CCR1 receptor leads to an increase of intracellular calcium levels. The ability of the compounds of the invention to block this biologic response of the CCR1 receptor is determined in the Ca^2+-flux assay.
In Vitro Ca^2+-Flux Assay on Human Monocytes
• 1. Cell Culture: • a) THP-1 (ATCC Cat# TIB202) • b) Tissue culture medium: RPMI 1640 with Ultraglutamine 1 supplemented with 10% (v/v) foetal calf serum. This medium is hereinafter referred to as “growth medium”. • 2. Assay buffer: HBSS (Hanks' balanced salts solution), 20 mM HEPES, 1 mM CaCl2, 1 mM MgCl2, 2.5 mM Probenecid, pH 7.4. • 3. Fluo-4AM (Molecular Probes Cat # F14201) • 4. Pluronic® F-127 (Molecular Probes Cat # P-6867) • 5. The compounds of the invention were dissolved in DMSO. A serial dilution was made and nine concentrations of each compound were screened to generate a dose curve from which the IC50 value was determined. • 6. MIP-1α (Peprotech EC Ltd Cat# 300-08) • 7. Victor^2 1420 (Perkin Elmer) • 8. Microlite™^2+ (Dynex Cat # 7572) Assay Procedure:
THP-1 cells were grown in T-75 cm^2 flasks in growth medium at 37° C. in 5% CO2. The cells were harvested by centrifugation and resuspended in assay buffer. The cells were then loaded with 5 μM Fluo-4 and 0.02% pluronic acid (final concentrations) at 37° C. in 5% CO2 for 30 min. The excess dye was removed by washing with assay buffer. The cells were resuspended and 10^5 cells/well were added in a Microlite plate containing compounds and then incubated for 15 minutes at 37° C. in 5% CO2. The cells were then stimulated with MIP-1α and changes in intracellular free Ca^2+ concentration were measured with a Victor^2.
Using the procedures set forth in the competitive affinity binding assay and the Ca^2+-flux assay, various compounds of the invention were tested for their ability to block Ca^2+-flux (IC50^Ca). The results of some examples and the Compounds A, B, C, and D are shown in Table 2 where all IC50-values are given in nM (nano Molar). Table 2 exemplifies the invention without limiting the scope thereof.

[1] = In vivo bioavailability in the mouse (cassette dosing); details: female SJL/N Tac mice; for half-life / clearance: mouse, nominal dose 1 mg/kg; for half-life: plasma half-life; for clearance: plasma; for F: oral bioavailability, nominal dose 1 mg/kg iv and oral
Protocol: In Vivo Bioavailability in the Mouse
Female mice (SJL/N Tac) were given a single intravenous or oral dose of a mixture of 5 or 6 compounds per cassette (nominal dose: 1 mg/kg/compound) in a solution containing 0.5% N,N′-dimethylacetamide (DMA) and 15% sulfobutyl ether β-cyclodextrin (Captisol®). Blood samples were taken from one mouse per time point and dose group until 24 hour after respective administration. The dose formulations and plasma concentrations of each compound were determined by LC-MS/MS. The pharmacokinetic parameters were determined by non-compartmental analysis using WinNonlin Professional (version 4.0.1). The elimination rate constant, λ, was estimated by linear regression analysis of the terminal slope of the logarithmic plasma concentration-time curve. The area under the plasma concentration-time curve, AUC0-t, was calculated by using the linear/logarithmic trapezoidal rule. The AUCinf was calculated with the residual area estimated as Cz/λ. The calculated plasma concentration at the last time point, Cz, was obtained from the regression equation. The oral bioavailability (F) was calculated as: Foral=(AUCinf,po/AUCinf,iv)·(Doseiv/Dosepo). Pharmacodynamic Assays
The compounds of the invention show oral bioavailability in the mouse. Using the procedures set forth in the in vivo bioavailability assay, various compounds of the invention were tested for their clearance (CL; L/h/kg), plasma half-life (t1/2; hrs) as well as oral bioavailability (F; %) after administration of the nominal dose of 1 mg/kg of each compound. Table 3 exemplifies the invention, without limiting the scope thereof.

Structure (SMILES) | IC50 (CCR1 receptor) [nM] | half-life [1] [h] | clearance [1] [mL/min/kg] | F [1] [%]
COc1cccc2cc(C(=O)N3C[C@@H](C)N(Cc4ccc(F)cc4)C[C@H]3C)oc12 (racemic) [Compound A, (cis)-4-(4-Fluorobenzyl)-1-(7-methoxy-benzofuran-2-yl-carbonyl)-2,5-dimethylpiperazine, reference compound] | > 1000 | – | – | –
COc1cccc2cc(C(=O)N3C[C@@H](C)N(Cc4ccc(F)cc4)C[C@@H]3C)oc12 (racemic) [Compound D, (trans)-4-(4-Fluorobenzyl)-1-(7-methoxy-benzofuran-2-yl-carbonyl)-2,5-dimethylpiperazine, reference compound] | > 1000 | – | – | –
O=C(c1cc2ccccc2o1)N1CCN(Cc2ccc(Cl)cc2)CC1 [Compound C, 4-(4-chlorobenzyl)-1-(benzofuran-2-yl-carbonyl)-piperazine, reference compound] | > 1000 | – | – | –

Other lines, results leading:

IC50 (CCR1 receptor) [nM] | half-life [1] [h] | clearance [1] [mL/min/kg] | F [1] [%] | Structure (SMILES)
12 | 7 | 15 | 53 | C[C@@H]1CN(C(=O)c2cc3cc(Br)ccc3o2)[C@@H](C)CN1Cc1ccc(F)cc1 (racemic) [Compound 3.1, (trans)-1-(5-Bromo-benzofuran-2-yl-carbonyl)-4-(4-fluorobenzyl)-2,5-dimethylpiperazine]
20 | – | – | – | Cc1ccc2cc(C(=O)N3C[C@@H](C)N(Cc4ccc(F)cc4)C[C@@H]3C)oc2c1 (racemic) [Compound 3.13, (trans)-4-(4-Fluorobenzyl)-1-(6-methyl-benzofuran-2-yl-carbonyl)-2,5-dimethylpiperazine]
15 | – | – | – | C[C@@H]1CN(C(=O)c2cc3cc(Cl)c(Cl)cc3[nH]2)[C@@H](C)CN1Cc1ccc(F)cc1 (racemic) [Compound 3.20, (trans)-(5,6-Dichloro-indol-2-yl-carbonyl)-4-(4-fluorobenzyl)-2,5-dimethylpiperazine]
– | 4.8 | 43.3 | 72 | C[C@@H]1CN(C(=O)c2cc3cc(Cl)ccc3o2)[C@@H](C)CN1Cc1ccc(F)cc1 (racemic) [Compound 4.1, (trans)-1-(5-Chloro-benzofuran-2-yl-carbonyl)-4-(4-fluorobenzyl)-2,5-dimethylpiperazine]

— patent US7339059B2, “Benzofurans and indols” (Active Biotech AB, priority 2004, dated 2008)
